Tests used:
[1] = target: T1, aquaporin-3 (AQP3) (Homo sapiens, UniProt Q92482); assay: stopped-flow glycerol permeability in hRBCs; type: cell-based; design: native AQP3 in human red blood cells; details: red blood cells
T1 sequence (Q92482 1-292): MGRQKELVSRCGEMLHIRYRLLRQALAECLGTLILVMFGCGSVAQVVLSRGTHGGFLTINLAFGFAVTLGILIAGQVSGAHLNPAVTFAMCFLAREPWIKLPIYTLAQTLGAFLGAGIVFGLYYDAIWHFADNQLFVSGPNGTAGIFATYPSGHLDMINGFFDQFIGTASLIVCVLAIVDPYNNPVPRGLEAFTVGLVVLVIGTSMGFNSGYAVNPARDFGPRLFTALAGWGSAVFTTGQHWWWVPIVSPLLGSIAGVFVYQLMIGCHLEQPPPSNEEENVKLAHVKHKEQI

[2] = target: T1, aquaporin-3 (AQP3); assay: stopped-flow glycerol permeability in hRBCs; confirmed in yeast expressing human AQP3; type: cell-based; design: native AQP3 in human red blood cells (IC50); details: red blood cells

P5W30 was tested, and the IC50 [1] was 3240 ± 30 nM.

P2W18 was tested, and the IC50 [2] was 800 ± 40 nM.

Work on P2W12 yielded an IC50 [1] of 2780 ± 90 nM.
